According to patent publication US6169181A, “Compounds useful to treat retroviral infections” (Pharmacia & Upjohn Company, priority 1998, dated 2001):
Where “and” joins values, the source holds several entries; their conditions need not be identical. Identical values can stand only once. Like-named read-outs stand apart in the source and are kept apart here.

Tests used:
[1] = target: T1, single chain tethered (tandem) HIV protease (HIV-1 M:B_HXB2R, UniProt P04585); test: Tandem HIV protease assay; format: biochemical; details: read-out: FITC KI; Table II; enzyme HIV1TANDEM
T1 construct: purified enzyme, FITC/biotin substrate assay
Method in brief: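 Covalently tethered single-chain HIV protease dimer allows very low enzyme levels for Ki measurement. N-biotinylated, C-fluorescein-labelled peptide substrate incubated with enzyme and inhibitor at pH 5.5 in the dark for 96 h; streptavidin beads stop reaction, cleaved product filtered off and residual fluorescence fitted to obtain Ki.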

HIV-1 protease = HIV-1 protease (Human immunodeficiency virus type 1 group M subtype B, UniProt P04585); test: biochemical
Method in brief: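 Percent inhibition came from fluorescence of FITC-tagged cleavage product, separated by filtration from uncleaved substrate captured on streptavidin-coated beads. The enzyme (10 μl of 0.1 μM) and compound acted on a biotin/FITC dual-labelled peptide for one hour at room temperature in the dark. The reaction ran in 0.1 M sodium acetate, pH 5.5, with 1.0 M NaCl and 0.05% NP-40.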

[2] = Table II, enzyme HIV-1, DOSE 0.123 (unit not given)
[3] = Table II, enzyme HIV-1, DOSE 0.370 (unit not given)
[4] = Table II, enzyme HIV-1, DOSE 1.100 (unit not given)
[5] = Table II, enzyme HIV-1, DOSE 3.300 (unit not given)
[6] = Table II, enzyme HIV-1, DOSE 10.000 (unit not given)
[7] = Table II, enzyme HIV-1, DOSE 30.000 (unit not given)

CCCC1(CCC)CC(O)=C(C(c2cccc(NS(=O)(=O)c3cn(C)cn3)c2)C(C)(C)C)C(=O)O1 (single isomer, unassigned) [Example 319, N-[3(R or S)-(1-[5,6-Dihydro-6,6-dipropyl-4-hydroxy-2-oxo-2H-pyran-3-yl]-2,2-dimethylpropyl)-phenyl]-1-methyl-1H-imidazole-4-sulfonamide]
Ki [1]: 29.5 nM
PROTEASE % INHIB. (HIV-1 protease; [2]): 10.75%
PROTEASE % INHIB. (HIV-1 protease; [3]): 32.65%
PROTEASE % INHIB. (HIV-1 protease; [4]): 60.14%
PROTEASE % INHIB. (HIV-1 protease; [5]): 75.86%
PROTEASE % INHIB. (HIV-1 protease; [6]): 93.46%
PROTEASE % INHIB. (HIV-1 protease; [7]): 74.48%

CCC[C@@]1(CCc2ccccc2)CC(O)=C([C@H](CC)c2cccc(NS(=O)(=O)c3ccc(C#N)cn3)c2)C(=O)O1 (single isomer, unassigned) [Example 335, N-[3-{1(R or S)-(4-Hydroxy-5,6-dihydro-2-oxo-6(R or S)-phenethyl-6-propyl-2H-pyran-3-yl)propyl}phenyl]-5-cyanopyridine-2-sulfonamide]
Ki [1]: 0.04 nM
PROTEASE % INHIB. (HIV-1 protease): 60.07 and 99.75 and 97.05 and 92.06 and 89.77 and 76.25

CCC[C@]1(CCc2ccccc2)CC(O)=C([C@H](CC)c2cccc(NS(=O)(=O)c3ccc(C#N)cn3)c2)C(=O)O1 (single isomer, unassigned) [Example 336, N-[3-{1(R or S)-(4-Hydroxy-5,6-dihydro-2-oxo-6(S or R)-phenethyl-6-propyl-2H-pyran-3-yl)propyl}phenyl]-5-cyanopyridine-2-sulfonamide]
Ki [1]: 0.032 nM
PROTEASE % INHIB. (HIV-1 protease): 65.64 and 112 and 89.54 and 88.06 and 77.12 and 62.28

CCC[C@]1(CCc2ccccc2)CC(O)=C([C@@H](CC)c2cccc(NS(=O)(=O)c3ccc(C#N)cn3)c2)C(=O)O1 (single isomer, unassigned) [Example 338, N-[3-{1(S or R)-(4-Hydroxy-5,6-dihydro-2-oxo-6(S or R)-phenethyl-6-propyl-2H-pyran-3-yl)propyl]phenyl]-5-cyano-pyridine-2-sulfonamide]
Ki [1]: 0.1 nM
PROTEASE % INHIB. (HIV-1 protease): 61.74 and 85.32 and 80.46 and 89.62 and 83.53 and 62.34

CCC[C@@]1(CCc2ccccc2)CC(O)=C([C@H](CC)c2cccc(NS(=O)(=O)c3cn(C)cn3)c2)C(=O)O1 (single isomer, unassigned) [Example 339, N-[3-{1(R or S)-(4-Hydroxy-5,6-dihydro-2-oxo-6(R or S)-phenethyl-6-propyl-2H-pyran-3-yl)propyl}phenyl]-1-methyl-1H-imidazole-4-sulfonamide]
Ki [1]: 0.12 nM
PROTEASE % INHIB. (HIV-1 protease): 83.49 and 100.6 and 101.42 and 104.71 and 91.38 and 72.86

CCC[C@]1(CCc2ccccc2)CC(O)=C([C@H](CC)c2cccc(NS(=O)(=O)c3cn(C)cn3)c2)C(=O)O1 (single isomer, unassigned) [Example 340, N-[3-{1(R or S)-(4-Hydroxy-5,6-dihydro-2-oxo-6(S or R)-phenethyl-6-propyl-2H-pyran-3-yl)propyl}phenyl]-1-methyl-1H-imidazole-4-sulfonamide]
Ki [1]: 0.06 nM
PROTEASE % INHIB. (HIV-1 protease): 80.58 and 90.49 and 90.16 and 91.57 and 89.49 and 71.99

CCC[C@]1(CCc2ccccc2)CC(O)=C([C@@H](CC)c2cccc(NS(=O)(=O)c3cn(C)cn3)c2)C(=O)O1 (single isomer, unassigned) [Example 342, N-[3-{1(S or R)-(4-Hydroxy-5,6-dihydro-2-oxo-6(S or R)-phenethyl-6-propyl-2H-pyran-3-yl)propyl}phenyl]-1-methyl-1H-imidazole-4-sulfonamide]
Ki [1]: 0.309 nM
PROTEASE % INHIB. (HIV-1 protease): 81.06 and 93.18 and 96.94 and 85.55 and 73.55 and 73.95

CCC[C@@]1(CCc2ccc(F)cc2)CC(O)=C([C@@H](c2cccc(NS(=O)(=O)c3ccc(C#N)cn3)c2)C(C)(C)C)C(=O)O1 (single isomer, unassigned) [Example 345, N-[3-{1(R or S)-(4-Hydroxy-5,6-dihydro-2-oxo-6(R or S)-(2-(4-fluorophenyl)ethyl)-6-propyl-2H-pyran-3-yl)-2,2-dimethyl-propyl}phenyl]-5-cyanopyridine-2-sulfonamide]
Ki [1]: 0.032 nM
PROTEASE % INHIB. (HIV-1 protease; [2]): 69.19%
PROTEASE % INHIB. (HIV-1 protease; [3]): 94.37%
PROTEASE % INHIB. (HIV-1 protease; [4]): 101.67%
PROTEASE % INHIB. (HIV-1 protease; [5]): 99.08%
PROTEASE % INHIB. (HIV-1 protease; [6]): 97.43%
PROTEASE % INHIB. (HIV-1 protease; [7]): 84.56%

CCC[C@@]1(CCc2ccc(F)cc2)CC(O)=C([C@H](c2cccc(NS(=O)(=O)c3ccc(C#N)cn3)c2)C(C)(C)C)C(=O)O1 (single isomer, unassigned) [Example 347, N-[3-{1(S or R)-(4-Hydroxy-5,6-dihydro-2-oxo-6(R or S)-(2-(4-fluorophenyl)ethyl)-6-propyl-2H-pyran-3-yl)-2,2-dimethyl-propyl}phenyl]-5-cyanopyridine-2-sulfonamide]
Ki [1]: 13.6 nM
PROTEASE % INHIB. (HIV-1 protease; [2]): 20.99%
PROTEASE % INHIB. (HIV-1 protease; [3]): 50.82%
PROTEASE % INHIB. (HIV-1 protease; [4]): 71.4%
PROTEASE % INHIB. (HIV-1 protease; [5]): 83%
PROTEASE % INHIB. (HIV-1 protease; [6]): 90.97%
PROTEASE % INHIB. (HIV-1 protease; [7]): 87.18%

CCC[C@]1(CCc2ccc(F)cc2)CC(O)=C([C@H](c2cccc(NS(=O)(=O)c3ccc(C#N)cn3)c2)C(C)(C)C)C(=O)O1 (single isomer, unassigned) [Example 348, N-[3-{1(S or R)-(4-Hydroxy-5,6-dihydro-2-oxo-6(S or R)-(2-(4-fluorophenyl)ethyl)-6-propyl-2H-pyran-3-yl)-2,2-dimethyl-propyl}phenyl]-5-cyanopyridine-2-sulfonamide]
Ki [1]: 1.96 nM
PROTEASE % INHIB. (HIV-1 protease; [2]): 53.47%
PROTEASE % INHIB. (HIV-1 protease; [3]): 78.32%
PROTEASE % INHIB. (HIV-1 protease; [4]): 89.84%
PROTEASE % INHIB. (HIV-1 protease; [5]): 92.96%
PROTEASE % INHIB. (HIV-1 protease; [6]): 96.28%
PROTEASE % INHIB. (HIV-1 protease; [7]): 84.67%

CCC[C@@]1(CCc2ccc(F)cc2)CC(O)=C([C@@H](c2cccc(NS(=O)(=O)c3cn(C)cn3)c2)C(C)(C)C)C(=O)O1 (single isomer, unassigned) [Example 349, N-[3-{1(R or S)-(4-Hydroxy-5,6-dihydro-2-oxo-6(R or S)-(2-(4-fluorophenyl)ethyl)-6-propyl-2H-pyran-3-yl)-2,2-dimethyl-propyl}phenyl]-1-methyl-1H-imidazole-4-sulfonamide]
Ki [1]: 0.111 nM
PROTEASE % INHIB. (HIV-1 protease; [2]): 74.5%
PROTEASE % INHIB. (HIV-1 protease; [3]): 88.21%
PROTEASE % INHIB. (HIV-1 protease; [4]): 99.92%
PROTEASE % INHIB. (HIV-1 protease; [5]): 104.99%
PROTEASE % INHIB. (HIV-1 protease; [6]): 103.49%
PROTEASE % INHIB. (HIV-1 protease; [7]): 98.24%

CC(C)(C)C(C1=C(O)CC(CCc2ccccc2)(CCc2ccccc2)OC1=O)c1cccc(NS(=O)(=O)c2ccc(N)cn2)c1 (single isomer, unassigned) [Example 356, N-[3-{1(S or R)-(4-Hydroxy-5,6-dihydro-2-oxo-6,6-bis(2-phenyl-ethyl)-2H-pyran-3-yl)-2,2-dimethylpropyl}phenyl]-5-amino-pyridine-2-sulfonamide]
Ki [1]: 1.1 nM
PROTEASE % INHIB. (HIV-1 protease; [2]): 54.96%
PROTEASE % INHIB. (HIV-1 protease; [3]): 71.75%
PROTEASE % INHIB. (HIV-1 protease; [4]): 90.19%
PROTEASE % INHIB. (HIV-1 protease; [5]): 92.28%
PROTEASE % INHIB. (HIV-1 protease; [6]): 100.22%
PROTEASE % INHIB. (HIV-1 protease; [7]): 95.16%

CCCC1(CCC)CC(O)=C(C(CC)c2cccc(NS(=O)(=O)c3ccc(C(F)(F)F)cn3)c2)C(=O)O1 (centres unmarked) [Example 280, 5-Trifluoromethyl-N-[3-[1-[4-hydroxy-2-oxo-6,6-di-n-propyl-5,6-dihydro-2H-pyran-3-yl]-propyl]-phenyl]-2-pyridinesulfonamide]
Ki [1]: 0.1 nM
PROTEASE % INHIB. (HIV-1 protease; [2]): 95.28%
PROTEASE % INHIB. (HIV-1 protease; [3]): 94.98%
PROTEASE % INHIB. (HIV-1 protease; [4]): 93.01%
PROTEASE % INHIB. (HIV-1 protease; [5]): 86.69%
PROTEASE % INHIB. (HIV-1 protease; [6]): 78.64%
PROTEASE % INHIB. (HIV-1 protease; [7]): 76.85%

CCCC1(CCc2ccccc2)CC(O)=C(C(c2cccc(NS(=O)(=O)c3ccc(N)cn3)c2)C(C)(C)C)C(=O)O1 (centres unmarked) [Example 299, 5-Amino-N-[3-(1-[5,6-dihydro-4-hydroxy-2-oxo-6-(2-phenylethyl)-6-propyl-2H-pyran-3-yl]-2,2-dimethylpropyl)phenyl]-2-pyridinesulfonamide]
Ki [1]: 0.2 nM
PROTEASE % INHIB. (HIV-1 protease): 83.51 and 104.76 and 117.95 and 115.61 and 128.03 and 102.89

CCC(C1=C(O)CC(CCc2ccccc2)(CCc2ccccc2)OC1=O)c1cccc(NS(=O)(=O)c2cn(C)cn2)c1 (centres unmarked) [Example 330, N-[3-{1-(4-Hydroxy-5,6-dihydro-2-oxo-6,6-bis(2-phenylethyl)-2H-pyran-3-yl)propyl}phenyl]-1-methyl-1H-imidazole-4-sulfonamide]
Ki [1]: 0.524 nM
PROTEASE % INHIB. (HIV-1 protease; [2]): 93.74%
PROTEASE % INHIB. (HIV-1 protease; [3]): 94.32%
PROTEASE % INHIB. (HIV-1 protease; [4]): 93.66%
PROTEASE % INHIB. (HIV-1 protease; [5]): 85.63%
PROTEASE % INHIB. (HIV-1 protease; [6]): 87.9%
PROTEASE % INHIB. (HIV-1 protease; [7]): 69.82%

CCC(C1=C(O)CC(CCc2ccccc2)(CCc2ccccc2)OC1=O)c1cccc(NS(=O)(=O)c2ccc(C#N)cn2)c1 (centres unmarked) [Example 331, N-[3-{1-(4-Hydroxy-5,6-dihydro-2-oxo-6,6-bis(2-phenylethyl)-2H-pyran-3-yl)propyl}phenyl]-5-cyanopyridine-2-sulfonamide]
Ki [1]: 0.272 nM
PROTEASE % INHIB. (HIV-1 protease; [2]): 99.76%
PROTEASE % INHIB. (HIV-1 protease; [3]): 104.06%
PROTEASE % INHIB. (HIV-1 protease; [4]): 108.51%
PROTEASE % INHIB. (HIV-1 protease; [5]): 99.3%
PROTEASE % INHIB. (HIV-1 protease; [6]): 103.28%
PROTEASE % INHIB. (HIV-1 protease; [7]): 93.3%
